Literature values in US8679534B2, “HMG-CoA reductase inhibitor extended release formulation” (Andrx Labs, LLC, priority 1997, dated 2014).

System: blood serum cholesterol level
Conditions: background statement

SMILES: CC[C@H](C)C(=O)O[C@H]1C[C@@H](C)C=C2C=C[C@H](C)[C@H](CC[C@@H]3C[C@@H](O)CC(=O)O3)[C@H]21 [Lovastatin, lovastatin]
- lowering of the blood serum cholesterol level: 30-40%
